The values that follow come from ChEMBL document CHEMBL3044818, “Fungicide resistance status in French populations of the wheat eyespot fungi Oculimacula acuformis and Oculimacula yallundae” (Pest Manag Sci, 2013).

Molecules are shown by their SMILES. Converted amounts (≈) assume the structure as drawn.

For one assay, the system named is Oculimacula yallundae. Briefly: Resistance index, ratio of EC50 for sterol 14alpha-demethylation inhibitor-resistant Oculimacula yallundae TriR1 to EC50 for wild type Oculimacula yallundae TriS by mycelial growth inhibition assay.
Conditions: not given
In kind it is functional.
On to `O=C(Nc1ccccc1-c1ccc(Cl)cc1)c1cccnc1Cl` [BOSCALID], for which the “Ratio EC50” value is recorded as 0.8.
As for `Clc1ccc(C2(Cn3cncn3)CC(Br)CO2)c(Cl)c1` (stereo unspecified) [BROMUCONAZOLE], the “Ratio EC50” value was found to be 5.

Another assay concerns Oculimacula yallundae. Briefly: Fungicidal activity against prochloraz-susceptible Oculimacula yallundae isolate ProS assessed as inhibition of mycelial growth in presence of 10 g glucose incubated at 19 degC in dark for 4 weeks. In kind it is functional, organism-based. Particulars: 672 h.
On to `Clc1ccc(C2(Cn3cncn3)CC(Br)CO2)c(Cl)c1` (stereo unspecified) [BROMUCONAZOLE], for which the EC50 was 1.5 mg/L.

The test system of a further assay is Oculimacula yallundae. The experiment in a line: Resistance index, ratio of EC50 for sterol 14alpha-demethylation inhibitor-resistant Oculimacula yallundae MDR to EC50 for sterol 14alpha-demethylation inhibitor-resistant Oculimacula yallundae TriR1 by mycelial growth inhibition assay. Format: functional.
Conditions: not given
On to `O=C(Nc1ccccc1-c1ccc(Cl)cc1)c1cccnc1Cl` [BOSCALID], for which the “Ratio EC50” value came out at 10.
For the compound `Clc1ccc(C2(Cn3cncn3)CC(Br)CO2)c(Cl)c1` (stereo unspecified) [BROMUCONAZOLE], the “Ratio EC50” value was found to be 2.

The next assay relates to Oculimacula yallundae. The experiment in a line: Resistance index, ratio of EC50 for sterol 14alpha-demethylation inhibitor-resistant Oculimacula yallundae MDR to EC50 for sterol 14alpha-demethylation inhibitor-resistant Oculimacula yallundae TriR1 by germ tube elongation assay. In kind it is functional.
Conditions: not given
In the case of `O=C(Nc1ccccc1-c1ccc(Cl)cc1)c1cccnc1Cl` [BOSCALID], the “Ratio EC50” value was 4.5.
Same read-out and setting: in the case of `Clc1ccc(C2(Cn3cncn3)CC(Br)CO2)c(Cl)c1` (stereo unspecified) [BROMUCONAZOLE] it was 2.5.

For a further assay, the system named is Oculimacula yallundae. The experiment in a line: Resistance index, ratio of EC50 for sterol 14alpha-demethylation inhibitor-resistant Oculimacula yallundae TriR2 to EC50 for wild type Oculimacula yallundae TriS by mycelial growth inhibition assay.
Conditions: not given
Format: functional.
For `O=C(Nc1ccccc1-c1ccc(Cl)cc1)c1cccnc1Cl` [BOSCALID], the “Ratio EC50” value amounted to 1.
Consider `Clc1ccc(C2(Cn3cncn3)CC(Br)CO2)c(Cl)c1` (stereo unspecified) [BROMUCONAZOLE], for which the “Ratio EC50” value is 10.

Another assay deals with Oculimacula yallundae. The experiment in a line: Resistance index, ratio of EC50 for prochloraz-resistant Oculimacula yallundae isolate ProR2 to EC50 for prochloraz-susceptible Oculimacula yallundae isolate ProS by mycelial growth inhibition assay. In kind it is functional.
Conditions: not given
On to `Clc1ccc(C2(Cn3cncn3)CC(Br)CO2)c(Cl)c1` (stereo unspecified) [BROMUCONAZOLE], for which the “Ratio EC50” value is given as 0.5.

The next assay deals with Oculimacula acuformis. The experiment in a line: Fungicidal activity against Oculimacula acuformis assessed as inhibition of germ tube elongation incubated at 19 degC in dark for 48 hr. In kind it is functional, organism-based.
Conditions: not given
Regarding `O=C(Nc1ccccc1-c1ccc(Cl)cc1)c1cccnc1Cl` [BOSCALID], the concentration for a half-maximal effect (EC50) came out at 0.025 mg/L (≈ 0.0728 µM).
As for `Clc1ccc(C2(Cn3cncn3)CC(Br)CO2)c(Cl)c1` (stereo unspecified) [BROMUCONAZOLE], the EC50 is 0.8 mg/L (≈ 2.12 µM).

A further assay deals with Oculimacula yallundae. The experiment in a line: Resistance index, ratio of EC50 for sterol 14alpha-demethylation inhibitor-resistant Oculimacula yallundae TriR2 to EC50 for sterol 14alpha-demethylation inhibitor-resistant Oculimacula yallundae TriR1 by mycelial growth inhibition assay. In kind it is functional.
Conditions: not given
As to `O=C(Nc1ccccc1-c1ccc(Cl)cc1)c1cccnc1Cl` [BOSCALID], the “Ratio EC50” value worked out at 1.3.
For `Clc1ccc(C2(Cn3cncn3)CC(Br)CO2)c(Cl)c1` (stereo unspecified) [BROMUCONAZOLE], the “Ratio EC50” value was 2.

Another assay has as its system Oculimacula yallundae. The experiment in a line: Fungicidal activity against prochloraz-susceptible Oculimacula yallundae isolate ProS assessed as inhibition of germ tube elongation incubated at 19 degC in dark for 48 hr. In kind it is functional, organism-based.
Conditions: not given
On to `Clc1ccc(C2(Cn3cncn3)CC(Br)CO2)c(Cl)c1` (stereo unspecified) [BROMUCONAZOLE], for which the half-maximal effective concentration (EC50) was found to be 0.8 mg/L (≈ 2.12 µM).

The test system of another assay is Oculimacula yallundae. Briefly: Fungicidal activity against Oculimacula yallundae assessed as inhibition of mycelial growth in presence of 5 g sodium succinate incubated at 19 degC in dark for 4 weeks. The following applies: 672 h. Format: functional, organism-based.
As to `O=C(Nc1ccccc1-c1ccc(Cl)cc1)c1cccnc1Cl` [BOSCALID], the concentration for a half-maximal effect (EC50) is 5 mg/L.

The next assay concerns Oculimacula yallundae. The experiment in a line: Resistance index, ratio of EC50 for sterol 14alpha-demethylation inhibitor-resistant Oculimacula yallundae TriR2 to EC50 for wild type Oculimacula yallundae TriS by germ tube elongation assay. In kind it is functional.
Conditions: not given
`O=C(Nc1ccccc1-c1ccc(Cl)cc1)c1cccnc1Cl` [BOSCALID]: the “Ratio EC50” value is given as 1.3.
As for `Clc1ccc(C2(Cn3cncn3)CC(Br)CO2)c(Cl)c1` (stereo unspecified) [BROMUCONAZOLE], the “Ratio EC50” value worked out at 40.

Another assay has as its system Oculimacula yallundae. Briefly: Resistance index, ratio of EC50 for sterol 14alpha-demethylation inhibitor-resistant Oculimacula yallundae MDR to EC50 for wild type Oculimacula yallundae TriS by mycelial growth inhibition assay. Format: functional.
Conditions: not given
Take `O=C(Nc1ccccc1-c1ccc(Cl)cc1)c1cccnc1Cl` [BOSCALID]: the “Ratio EC50” value stood at 7.5.
Still for that read-out and setting: in the case of `Clc1ccc(C2(Cn3cncn3)CC(Br)CO2)c(Cl)c1` (stereo unspecified) [BROMUCONAZOLE] it was 10.

The next assay concerns Oculimacula yallundae. Briefly: Resistance index, ratio of EC50 for prochloraz-resistant Oculimacula yallundae isolate ProR2 to EC50 for prochloraz-susceptible Oculimacula yallundae isolate ProS by germ tube elongation inhibition assay. Format: functional.
Conditions: not given
Regarding `Clc1ccc(C2(Cn3cncn3)CC(Br)CO2)c(Cl)c1` (stereo unspecified) [BROMUCONAZOLE], the “Ratio EC50” value was determined as 1.

System in the next assay: not listed separately
Briefly: Selectivity index, ratio of EC50 for Oculimacula acuformis to EC50 for Oculimacula yallundae by germ tube elongation inhibition assay. Format: functional.
Conditions: not given
As for `O=C(Nc1ccccc1-c1ccc(Cl)cc1)c1cccnc1Cl` [BOSCALID], the Ratio EC50 was 0.8.
`Clc1ccc(C2(Cn3cncn3)CC(Br)CO2)c(Cl)c1` (stereo unspecified) [BROMUCONAZOLE]: the Ratio EC50 was found to be 27.

Another assay has as its system Oculimacula yallundae. Briefly: Resistance index, ratio of EC50 for sterol 14alpha-demethylation inhibitor-resistant Oculimacula yallundae MDR to EC50 for wild type Oculimacula yallundae TriS by germ tube elongation assay.
Conditions: not given
In kind it is functional.
In the case of `O=C(Nc1ccccc1-c1ccc(Cl)cc1)c1cccnc1Cl` [BOSCALID], the “Ratio EC50” value is recorded as 5.
Still for that read-out and setting: in the case of `Clc1ccc(C2(Cn3cncn3)CC(Br)CO2)c(Cl)c1` (stereo unspecified) [BROMUCONAZOLE] it was 83.

Another assay has as its system Oculimacula yallundae. Briefly: Fungicidal activity against Oculimacula yallundae assessed as inhibition of germ tube elongation incubated at 19 degC in dark for 48 hr. In kind it is functional, organism-based.
Conditions: not given
`O=C(Nc1ccccc1-c1ccc(Cl)cc1)c1cccnc1Cl` [BOSCALID]: the EC50 was found to be 0.03 mg/L (≈ 0.0874 µM).
Regarding `Clc1ccc(C2(Cn3cncn3)CC(Br)CO2)c(Cl)c1` (stereo unspecified) [BROMUCONAZOLE], the EC50 is 0.03 mg/L (≈ 0.0796 µM).

The subject of another assay is Oculimacula yallundae. The experiment in a line: Resistance index, ratio of EC50 for prochloraz-resistant Oculimacula yallundae isolate ProR1 to EC50 for prochloraz-susceptible Oculimacula yallundae isolate ProS by mycelial growth inhibition assay. Format: functional.
Conditions: not given
Turning to `Clc1ccc(C2(Cn3cncn3)CC(Br)CO2)c(Cl)c1` (stereo unspecified) [BROMUCONAZOLE], the “Ratio EC50” value is 0.3.

In the next assay the test system is Oculimacula yallundae. Briefly: Resistance index, ratio of EC50 for sterol 14alpha-demethylation inhibitor-resistant Oculimacula yallundae TriR1 to EC50 for wild type Oculimacula yallundae TriS by germ tube elongation assay. Format: functional.
Conditions: not given
As for `O=C(Nc1ccccc1-c1ccc(Cl)cc1)c1cccnc1Cl` [BOSCALID], the “Ratio EC50” value worked out at 1.1.
Same read-out and setting: the result for `Clc1ccc(C2(Cn3cncn3)CC(Br)CO2)c(Cl)c1` (stereo unspecified) [BROMUCONAZOLE] reads 33.

System in the next assay: not listed separately
The experiment in a line: Selectivity index, ratio of EC50 for Oculimacula acuformis to EC50 for Oculimacula yallundae in presence of 10 g glucose by mycelial growth inhibition assay. Format: functional.
Conditions: not given
On to `O=C(Nc1ccccc1-c1ccc(Cl)cc1)c1cccnc1Cl` [BOSCALID], for which the Ratio EC50 was found to be 0.08.
On to `Clc1ccc(C2(Cn3cncn3)CC(Br)CO2)c(Cl)c1` (stereo unspecified) [BROMUCONAZOLE], for which the Ratio EC50 was 8.5.

The subject of another assay is Oculimacula acuformis. The experiment in a line: Fungicidal activity against Oculimacula acuformis assessed as inhibition of mycelial growth in presence of 10 g glucose incubated at 19 degC in dark for 4 weeks. Format: functional, organism-based. The following applies: 672 h.
For `O=C(Nc1ccccc1-c1ccc(Cl)cc1)c1cccnc1Cl` [BOSCALID], the EC50 turned out to be 0.3 mg/L.
The same measure, in the same setting: in the case of `Clc1ccc(C2(Cn3cncn3)CC(Br)CO2)c(Cl)c1` (stereo unspecified) [BROMUCONAZOLE] it was 1.5 mg/L.

The next assay deals with Oculimacula yallundae. Briefly: Fungicidal activity against Oculimacula yallundae assessed as inhibition of mycelial growth in presence of 10 g glucose incubated at 19 degC in dark for 4 weeks. In kind it is functional, organism-based. Particulars: 672 h.
`O=C(Nc1ccccc1-c1ccc(Cl)cc1)c1cccnc1Cl` [BOSCALID]: the concentration giving a half-maximal response (EC50) turned out to be 0.4 mg/L.
Regarding `Clc1ccc(C2(Cn3cncn3)CC(Br)CO2)c(Cl)c1` (stereo unspecified) [BROMUCONAZOLE], the 50% effective concentration (EC50) came out at 0.2 mg/L.

A further assay has as its system Oculimacula yallundae. The experiment in a line: Resistance index, ratio of EC50 for prochloraz-resistant Oculimacula yallundae isolate ProR1 to EC50 for prochloraz-susceptible Oculimacula yallundae isolate ProS by germ tube elongation inhibition assay. In kind it is functional.
Conditions: not given
`Clc1ccc(C2(Cn3cncn3)CC(Br)CO2)c(Cl)c1` (stereo unspecified) [BROMUCONAZOLE]: the “Ratio EC50” value is 0.6.

A further assay has as its system Oculimacula acuformis. Briefly: Fungicidal activity against Oculimacula acuformis assessed as inhibition of mycelial growth in presence of 5 g sodium succinate incubated at 19 degC in dark for 4 weeks. The following applies: 672 h. In kind it is functional, organism-based.
`O=C(Nc1ccccc1-c1ccc(Cl)cc1)c1cccnc1Cl` [BOSCALID]: the 50% effective concentration (EC50) was determined as 0.3 mg/L.

System in the next assay: not listed separately
The experiment in a line: Selectivity index, ratio of EC50 for Oculimacula acuformis to EC50 for Oculimacula yallundae in presence of 5 g sodium succinate by mycelial growth inhibition assay. Format: functional.
Conditions: not given
As for `O=C(Nc1ccccc1-c1ccc(Cl)cc1)c1cccnc1Cl` [BOSCALID], the Ratio EC50 stood at 0.06.

The next assay deals with Oculimacula yallundae. Briefly: Resistance index, ratio of EC50 for sterol 14alpha-demethylation inhibitor-resistant Oculimacula yallundae TriR2 to EC50 for sterol 14alpha-demethylation inhibitor-resistant Oculimacula yallundae TriR1 by germ tube elongation assay. Format: functional.
Conditions: not given
With `O=C(Nc1ccccc1-c1ccc(Cl)cc1)c1cccnc1Cl` [BOSCALID], the “Ratio EC50” value is 1.2.
As to `Clc1ccc(C2(Cn3cncn3)CC(Br)CO2)c(Cl)c1` (stereo unspecified) [BROMUCONAZOLE], the “Ratio EC50” value was found to be 1.2.
